Source: US20240317744A1, “Bicyclic Ureas As Kinase Inhibitors” (Incyte Corporation, priority 2023, published 2024)

Columns and labels:
[1] = biological target: catalytic domain (JH1, amino acids 808-1132) of human JAK2 (Homo sapiens, UniProt O60674); assay: JAK2 HTRF Enzyme Activity Assay; format: biochemical; conditions: ATP 30 µM, 60 minutes at 25° C.; read-out: V617F ENZ 30 UM
[2] = biological target: T1, pseudo-kinase domain (JH2, amino-acids 536-812) of human V617F mutant JAK2 (Homo sapiens, UniProt O60674, F794H/V617F/W659A/W777A); assay: JAK2 LanthaScreen JH2-V617F Binding Assay; conditions: JAK2 JH2-V617F 0.26 nM, 50 nM tracer, 1 hour at 25° C.; read-out: JH2 BIND V617F
T1 construct: pseudo-kinase domain (JH2, amino-acids 536-812 with 3 surface mutations W659A, W777A, F794H); His (C); purchased BPS Bioscience 79498; host or cells: baculovirus expression system
T1 sequence (O60674 536-812 V617F/W659A/W777A/F794H): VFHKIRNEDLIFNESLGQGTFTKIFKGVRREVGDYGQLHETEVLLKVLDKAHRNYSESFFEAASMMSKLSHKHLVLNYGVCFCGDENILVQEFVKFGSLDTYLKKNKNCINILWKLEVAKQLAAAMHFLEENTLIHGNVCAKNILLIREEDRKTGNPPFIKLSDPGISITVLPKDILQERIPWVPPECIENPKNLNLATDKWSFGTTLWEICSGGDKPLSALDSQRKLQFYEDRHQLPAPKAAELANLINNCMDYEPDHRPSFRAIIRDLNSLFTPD
Procedure: Example C. JAK2 LanthaScreen JH2-V617F Binding Assay
JAK2 JH2-V617F binding assay utilizes pseudo-kinase domain (JH2, amino-acids 536-812 with 3 surface mutations W659A, W777A, F794H) of human V617F mutant JAK2 expressed as C-terminal His-Avi-tagged, biotinylated protein in a baculovirus expression system (BPS Bioscience, Catalog #79498). The assay was conducted in black 384-well polystyrene plates in a final reaction volume of 20 μL. JAK2 JH2-V617F (0.26 nM) was incubated with compounds (100 nL serially diluted in DMSO) in the presence of 50 nM Fluorescent JAK2-JH2 Tracer (MedChem Express Catalog #HY-102055) and 0.25 nM Streptavidin-Tb cryptate (Cisbio Part #610SATLB) in assay buffer (50 mM Tris, pH=7.5, 10 mM MgCl2, 0.01% Brij-35, 0.1% BSA, 1 mM EGTA, 5% Glycerol and 5 mM DTT). Non-specific binding was accessed in the presence of 2 mM ATP. After incubation for 1 hour at 25° C., LanthaScreen signals were read on a PHERAstar FS plate reader (BMG LABTECH). Data was analyzed with IDBS XLfit and GraphPad Prism 5.0 software using a four parameter dose response curve to determine IC50 for each compound.

Chain of catalytic domain (JH1, amino acids 808-1132) of human JAK2 (O60674 808-1132 limits assumed): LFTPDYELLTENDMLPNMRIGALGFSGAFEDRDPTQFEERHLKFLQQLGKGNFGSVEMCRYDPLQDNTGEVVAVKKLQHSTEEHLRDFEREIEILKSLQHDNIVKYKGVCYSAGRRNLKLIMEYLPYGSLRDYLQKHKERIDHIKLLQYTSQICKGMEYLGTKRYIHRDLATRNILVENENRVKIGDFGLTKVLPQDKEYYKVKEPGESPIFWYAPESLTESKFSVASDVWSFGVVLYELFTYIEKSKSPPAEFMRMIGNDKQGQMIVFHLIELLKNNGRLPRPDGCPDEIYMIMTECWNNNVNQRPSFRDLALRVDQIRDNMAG

Compound | IC50 [1] [nM] | IC50 [2] [nM]
[2H]C1(NC(=O)OC)CC[C@@H](n2c(=O)n(C([2H])([2H])[2H])c3cnc(Nc4ccc5c(n4)c(-c4cnn(C(F)(F)F)c4)nn5CC(C)(C)O)cc32)C1 (single isomer, unassigned) [Example 124] | > 1000 | ≤ 10
[2H]C1(NC(=O)OC)CC[C@@H](n2c(=O)n(C([2H])([2H])[2H])c3cnc(Nc4ccc5c(n4)c(-c4cnn(C(F)(F)F)c4)nn5CC(C)(C)O)cc32)C1 (single isomer, unassigned) [Example 125] | > 1000 | ≤ 10
[2H]C([2H])([2H])n1c(=O)n([C@@H]2CC[C@@H](NC(=O)OC)C2)c2cc(Nc3ccc4c(n3)c(-c3cnn(C(F)(F)F)c3)cn4C3CCOCC3)ncc21 [Example 109, Methyl ((1R,3R)-3-(3-(methyl-d3)-2-oxo-6-((1-(tetrahydro-2H-pyran-4-yl)-3-(1-(trifluoromethyl)-1H-pyrazol-4-yl)-1H-pyrrolo[3,2-b]pyridin-5-yl)amino)-2,3-dihydro-1H-imidazo[4,5-c]pyridin-1-yl)cyclopentyl)carbamate] | > 1000 | ≤ 10
[2H]C([2H])([2H])n1c(=O)n([C@@H]2CC[C@@H](NC(=O)OC)C2)c2cc(Nc3ccc4c(n3)c(-c3cnn(C(F)(F)F)c3)cn4CC(C)(C)O)ncc21 [Example 110, Methyl ((1R,3R)-3-(6-((1-(2-hydroxy-2-methylpropyl)-3-(1-(trifluoromethyl)-1H-pyrazol-4-yl)-1H-pyrrolo[3,2-b]pyridin-5-yl)amino)-3-(methyl-d3)-2-oxo-2,3-dihydro-1H-imidazo[4,5-c]pyridin-1-yl)cyclopentyl)carbamate] | > 1000 | ≤ 10
[2H]C1(NC(=O)OC)CC[C@@H](n2c(=O)n(C([2H])([2H])[2H])c3cnc(Nc4ccc5c(n4)c(-c4cnn(C(F)(F)F)c4)cn5C4CCOCC4)cc32)C1 (stereo partly drawn) [Example 111, Methyl ((3R)-3-(3-(methyl-d3)-2-oxo-6-((1-(tetrahydro-2H-pyran-4-yl)-3-(1-(trifluoromethyl)-1H-pyrazol-4-yl)-1H-pyrrolo[3,2-b]pyridin-5-yl)amino)-2,3-dihydro-1H-imidazo[4,5-c]pyridin-1-yl)cyclopentyl-1-d)carbamate] | > 1000 | ≤ 10
[2H]C1(NC(=O)OC)CC[C@@H](n2c(=O)n(C([2H])([2H])[2H])c3cnc(Nc4ccc5c(n4)c(-c4cnn(C(F)(F)F)c4)cn5C4([2H])CCOCC4)cc32)C1 (stereo partly drawn) [Example 112, Methyl ((3R)-3-(3-(methyl-d3)-2-oxo-6-((1-(tetrahydro-2H-pyran-4-yl-4-d)-3-(1-(trifluoromethyl)-1H-pyrazol-4-yl)-1H-pyrrolo[3,2-b]pyridin-5-yl)amino)-2,3-dihydro-1H-imidazo[4,5-c]pyridin-1-yl)cyclopentyl-1-d)carbamate] | > 1000 | ≤ 10
[2H]C1(NC(=O)OC)CC[C@@H](n2c(=O)n(C([2H])([2H])[2H])c3cnc(Nc4ccc5c(n4)c(-c4cnn(C(F)(F)F)c4)cn5C4(C#N)CC4)cc32)C1 (stereo partly drawn) [Example 113, Methyl ((3R)-3-(6-((1-(1-cyanocyclopropyl)-3-(1-(trifluoromethyl)-1H-pyrazol-4-yl)-1H-pyrrolo[3,2-b]pyridin-5-yl)amino)-3-(methyl-d3)-2-oxo-2,3-dihydro-1H-imidazo[4,5-c]pyridin-1-yl)cyclopentyl-1-d)carbamate] | > 1000 | ≤ 10
[2H]C([2H])([2H])n1c(=O)n([C@@H]2CC[C@](C)(NC(=O)C3CC3)C2)c2cc(Nc3ccc4nn([C@H]5C[C@@H](O)C5)c(-c5cnn(C(F)(F)F)c5)c4n3)ncc21 [Example 121, N-((1S,3R)-3-(6-((2-((1s,3s)-3-Hydroxycyclobutyl)-3-(1-(trifluoromethyl)-1H-pyrazol-4-yl)-2H-pyrazolo[4,3-b]pyridin-5-yl)amino)-3-(methyl-d3)-2-oxo-2,3-dihydro-1H-imidazo[4,5-c]pyridin-1-yl)-1-methylcyclopentyl)cyclopropanecarboxamide] | > 1000 | ≤ 10
[2H]C([2H])([2H])n1c(=O)n([C@@H]2CC[C@@H](NC(=O)OC)C2)c2cc(Nc3ccc4nn(CC(C)(C)O)c(-c5cnn(C(F)(F)F)c5)c4n3)ncc21 [Example 122, Methyl ((1R,3R)-3-(6-((2-(2-hydroxy-2-methylpropyl)-3-(1-(trifluoromethyl)-1H-pyrazol-4-yl)-2H-pyrazolo[4,3-b]pyridin-5-yl)amino)-3-(methyl-d3)-2-oxo-2,3-dihydro-1H-imidazo[4,5-c]pyridin-1-yl)cyclopentyl)carbamate] | > 1000 | ≤ 10
[2H]C([2H])([2H])n1c(=O)n([C@@H]2CC[C@](C)(NC(=O)C3CC3)C2)c2cc(Nc3ccc4nn(CC(C)(C)O)c(-c5cnn(C(F)(F)F)c5)c4n3)ncc21 [Example 123, N-((1S,3R)-3-(6-((2-(2-Hydroxy-2-methylpropyl)-3-(1-(trifluoromethyl)-1H-pyrazol-4-yl)-2H-pyrazolo[4,3-b]pyridin-5-yl)amino)-3-(methyl-d3)-2-oxo-2,3-dihydro-1H-imidazo[4,5-c]pyridin-1-yl)-1-methylcyclopentyl)cyclopropanecarboxamide] | > 1000 | ≤ 10
[2H]C([2H])([2H])n1c(=O)n([C@H]2CC[C@@](C)(NC(=O)C3CC3)CC2)c2cc(Nc3ccc4c(n3)c(-c3cnn(C(F)(F)F)c3)nn4[C@H]3CC[C@H](O)CC3)ncc21 [Example 126, N-((1s,4s)-4-(6-((1-((1r,4r)-4-Hydroxycyclohexyl)-3-(1-(trifluoromethyl)-1H-pyrazol-4-yl)-1H-pyrazolo[4,3-b]pyridin-5-yl)amino)-3-(methyl-d3)-2-oxo-2,3-dihydro-1H-imidazo[4,5-c]pyridin-1-yl)-1-methylcyclohexyl)cyclopropanecarboxamide] | > 1000 | ≤ 10
[2H]C([2H])([2H])n1c(=O)n([C@H]2CC[C@@](C)(NC(=O)C3CC3)CC2)c2cc(Nc3cc(C(=O)N4CCOCC4)c4nn(C)c(-c5cnn(C(F)(F)F)c5)c4n3)ncc21 [Example 127, N-((1s,4s)-1-Methyl-4-(3-(methyl-d3)-6-((2-methyl-7-(morpholine-4-carbonyl)-3-(1-(trifluoromethyl)-1H-pyrazol-4-yl)-2H-pyrazolo[4,3-b]pyridin-5-yl)amino)-2-oxo-2,3-dihydro-1H-imidazo[4,5-c]pyridin-1-yl)cyclohexyl)cyclopropanecarboxamide] | > 1000 | ≤ 10
[2H]C([2H])([2H])n1c(=O)n([C@@H]2CC[C@](C)(NC(=O)OC)C2)c2cc(Nc3ccc4c(n3)c(-c3cnn(C(F)(F)F)c3)nn4CC(C)(C)O)ncc21 [Example 128, Methyl ((1S,3R)-3-(6-((1-(2-hydroxy-2-methylpropyl)-3-(1-(trifluoromethyl)-1H-pyrazol-4-yl)-1H-pyrazolo[4,3-b]pyridin-5-yl)amino)-3-(methyl-d3)-2-oxo-2,3-dihydro-1H-imidazo[4,5-c]pyridin-1-yl)-1-methylcyclopentyl)carbamate] | > 1000 | ≤ 10
